Literature values in US8106028B2, “MicroRNA-21 antagonists and its target PDCD4 for use in the treatment of a glioma” (Trustees of Dartmouth College, priority 2009, dated 2012).

System: PDCD4
Details: breast cancer cells; Afonja, et al. (2004)

## CC1(C)CCC(C)(C)c2cc(C(=O)Nc3ccc(C(=O)O)cc3)ccc21 [Am580]
  expression of PDCD4: stimulate the expression of PDCD4
